Read-outs that look alike come from different tables or passages of the source.
Key:
recombinant human Hsp90α = biological target: T1, recombinant human Hsp90α (Homo sapiens, UniProt P07900); experiment: SPR binding to immobilized recombinant Hsp90α; settings: Biacore 3000, immobilized full length Hsp90α, 25 °C, 1:1 Langmuir model, read-out: KD (nM) ± SD
T1 construct: purchased Abcam
Experimental: Recombinant human Hsp90α was purchased from Abcam (Abcam, Cambridge, UK). […] SPR analyses were carried out according to our previously published data[25]–[28],[32],[50]. Surface Plasmon Resonance Spectroscopy (SPR) analyses were performed to determine binding of various molecules to full length Hsp90α using a Biacore 3000 optical biosensor equipped with research-grade CM5 sensor chips (GE Healthcare). Hsp90α was coupled to the surface of a CM5 sensor chip using standard amine-coupling protocols, according to the manufacturer’s instructions.
The protein (100 µg mL^−1 in 10 mM CH3COONa, pH 5.0) was immobilized on individual sensor chip surfaces at a flow rate of 5 µL min^−1 to obtain densities of 8–12 kRU. For the experiments a recombinant Hsp90α surface, a BSA surface and one unmodified reference surface were prepared for simultaneous analyses. […] For each molecule a six-point concentration series were set up, spanning […], and for each sample the complete binding study was performed using triplicate aliquots. Changes in mass, due to the binding response, were recorded as resonance units (RU). To obtain the dissociation constant (KD) (Table 1), these responses were fit to a 1:1 Langmuir binding model by nonlinear regression using the BiaEvaluation software program provided by GE Healthcare. Simple interactions were suitably fitted to a single-site bimolecular interaction model (A + B = AB), yielding a single KD. (Table 1). SPR experiments were performed at 25 °C, using a flow rate of 50 µL min^−1, with 60 s monitoring of association and 300 s monitoring of dissociation.

[1] = test system: Jurkat (human leukemic T lymphocyte); experiment: Anti-proliferation MTT assay, Jurkat cells; assay type: cell-based; settings: for IC50: Homo sapiens
Experimental: (§1) Jurkat and U937 (2 × 10^4 /well) cells were seeded in triplicate in 96 well−plates and incubated for the 24 h or 48 h in the absence or presence of different concentrations of compounds 1, 4–5, 7–15, 21–22, 26 (concentration between 10 µM to 100 µM) or Novobiocin (concentration between 50 µM to 500 µM). Stock solutions of compounds (100 mM in DMSO) were diluted just before addition to the sterile culture medium and the final concentration of DMSO was 0.15% (v/v).
(§2) The number of viable cells was determined by using a […] (MTT, Sigma-Aldrich) conversion assay, according to the method described by Terracciano et al. 2016[27],[28]. After the indicated treatment, the cells were incubated for additional 3 h at 37 °C, with 25 µL of MTT (5 mg/mL in PBS). The formazan crystals thus formed were dissolved in 100 μl of buffer containing 50% (v/v) N,N-dimethylformamide, 20% SDS (pH 4.5). The absorbance was read at 570 nm using an Absorbance Microplate Reader (Titertek multiskan MCC7340, LabSystems, Vienna, VA, USA) equipped with a 620 nm filter. The cell population growth inhibition was also tested by cytometric counting (trypan blu exclusion). IC50 values were calculated from cell viability dose−response curves and defined as the concentration resulting in 50% inhibition of cell survival, compared to control cells treated with DMSO (see Supplementary Material Tables S2 and S3).

[2] = test system: U937 (human monocytic cell line from histiocytic lymphoma); experiment: Anti-proliferation MTT assay, U937 cells; assay type: cell-based; settings: for IC50: Homo sapiens
Experimental: as §1, §2

Jurkat cells = experiment: Cell cycle distribution / hypodiploid cells by PI flow cytometry; assay type: cell-based, human; settings: for hypodiploid cells: 200 µM
Experimental: Cell DNA content was measured by propidium iodide (PI) incorporation into permeabilized cells, as described by Nicoletti et al. Briefly, the Jurkat cells were treated for 24 h or 48 h with compounds used at the different concentrations. In particular, the compounds 7 or 10 were used at 25 or 50 µM, novobiocin was used at 50, 100 or 200 µM. The treated cells were harvested and incubated with a PI solution (0.1% sodium citrate, 0.1% Triton X-100 and 50 μg/ml of prodium iodide, Sigma-Aldrich, 10 μg/ml Rnase A) for 30 min at room temperature.
The cells were analyzed using FACScalibur flow cytometry (Becton Dickinson, San Josè, CA. The distribution of cells in cell cycle phases was determined using ModFit LT analysis software (Becton Dickinson). The percentage of apoptotic cells is represented as the percentage of hypodiploid cells accumulated at the sub G0/G1 phase of the cell cycle and was quantified using the CellQuest software (Becton Dickinson). Results were expressed as a mean ± SD of three experiments performed in triplicate.

[3] = test system: PHA-stimulated human peripheral blood mononuclear cells (PBMC); experiment: Cytotoxicity on PHA-stimulated PBMC by trypan blue count; assay type: cell-based; settings: 25 µM, DMSO control about 5 ± 0.9%
Experimental: Human peripheral blood mononuclear cells (PBMC), induced to proliferate by phytohemagglutinin (PHA) (10 µg/ml), were used to evaluate cytotoxic effects by trypan blue count of compound 7 and 10. Human peripheral blood mononuclear cells (PBMC) were isolated from buffy coats of healthy donors (kindly provided by the Blood Center of the Hospital of Battipaglia, Salerno, Italy) by using standard Ficoll−Hypaque gradients.

[4] = test system: Hsp90-dependent client proteins Raf-1, p-Akt, p-Erk and p53; Hsc70, Hsp90, Hsp70 in Jurkat cells; experiment: Western blot of Hsp90 client proteins and heat shock proteins; assay type: cell-based, human; settings: 24 h
Experimental: Following the treatment, the cells were trypsinized and homogenized on ice in RIPA lysis buffer (50 mM Hepes, 10 mM EDTA, 150 mM NaCl, 1% NP-40, 0.5% sodium deoxycholate, 0.1% SDS, pH 7.4), supplemented with protease inhibitors cocktail (Sigma-Aldrich). After centrifugation at 4 °C to removed cell debris, an equal protein amount (40 µg) was separated by SDS-PAGE under denatured reducing conditions and was then transferred to nitrocellulose membranes. The blots were blocked with 3% BSA and were incubated at 4 °C overnight with primary antibodies: anti-Hsp 70; anti-Hsp 90α/ß, anti-Raf1, anti-pAkt, anti Erk, anti pErk, anti-p53, anti Hsc70, anti GRP94, anti cyclin A antibodies (Santa Cruz Biotechnology, Inc., Delaware, CA, USA), anti-actin antibody (Sigma-Aldrich) anti CDK2, anti Cyclin D1 and anti CDK4 antibodies (Cell Signaling Technology, Leiden, Netherlands). Appropriate peroxidase-conjugate secondary antibodies were used to detect primary antibodies, and enzymatic signals were visualized by chemiluminescence reagent Pierce ECL (Thermo Scientific, Rockford, IL, USA). Quantitative densitometry analyses were performed using a ImageQuant LAS 4000 system (GE Healthcare Life Sciences,NY, USA).

[5] = U-937, 24 h, read-out: IC50 (µM) 24h
[6] = U-937, 48 h, read-out: IC50 (µM) 48h
[7] = 25 and 50 µM, western blot densitometry

| SMILES | Kd (recombinant human Hsp90α) [nM] | IC50 ([1]; 24 h, read-out: IC50 (µM) 24h) [µM] | IC50 ([1]; 48 h, read-out: IC50 (µM) 48h) [µM] | IC50 [2, 5] [µM] | IC50 [2, 6] [µM] | other results |
| --- | --- | --- | --- | --- | --- | --- |
| NC(=O)c1ccccc1NC(=O)CCCCCN1C(=O)c2ccccc2C1=O [Compound 1] | 1.5 ± 0.5 | > 100 | > 100 | > 100 | > 100 | – |
| O=C1c2ccccc2C(=O)N1CCSc1ncnc2scc(-c3ccc(Cl)cc3)c12 [Compound 4] | 3.2 ± 1.1 | > 100 | > 100 | > 100 | > 100 | – |
| Cc1cc(C)c2c(C)cc3nnc(SCCCN4C(=O)c5ccccc5C4=O)n3c2c1 [Compound 5] | 14.7 ± 9.4 | 100 | 98.3 | 91.2 | 91.2 | – |
| COc1ccc(NCC(=O)Nc2ncc(Cc3ccc(Cl)c(Cl)c3)s2)cc1 [Compound 7] | 5.2 ± 3.8 | 25.1 | 22 | 51.2 | 51 | hypodiploid cells (subG0/G1 DNA content) (Jurkat cells; 100 µM, 48 h): 10%; non-viable cells percentage ([3]; 24 h): about 6 ± 1.8%; non-viable cells percentage ([3]; 48 h): ~8 ± 1.5%; degradation of Hsp90-dependent client proteins Raf-1, p-Akt, p-Erk and p53 [4, 7]: 50–60%; reduction of Hsc70 [4, 7]: 15–20% |
| O=C(CNc1ccc(F)cc1)Nc1ncc(Cc2ccccc2F)s1 [Compound 8] | 2.4 ± 0.6 | – | – | – | – | IC50 (µM) 24h ([1]; 24 h): not active; IC50 (µM) 48h ([1]; 48 h): not active; IC50 (µM) 24h [2]: not active; IC50 (µM) 48h [2]: not active |
| COc1ccc(NCC(=O)Nc2ncc(Cc3cccc4ccccc34)s2)cc1 [Compound 9] | 20.9 ± 9.5 | 90.2 | 85.5 | 97.3 | 95.3 | – |
| O=C(CCCCCn1c(=O)[nH]c2ccccc2c1=O)CCCn1ccnc1 [Compound 11] | 79.3 ± 7.2 | 48.2 | 42.5 | 90.1 | 90.3 | – |
| O=C(CCCCCn1c(=O)[nH]c2ccccc2c1=O)NCCN1CCOCC1 [Compound 12] | 95.1 ± 5.7 | > 100 | > 100 | > 100 | > 100 | – |
| COC(=O)c1ccc(NC(=O)CCCCCn2c(=O)[nH]c3ccccc3c2=O)cc1 [Compound 13] | 300 ± 19.3 | 56.8 | 54 | 98.3 | 97 | – |
| NC(=O)c1ccc(NC(=O)CCCCCn2c(=O)[nH]c3ccccc3c2=O)cc1 [Compound 14] | 260 ± 8.4 | > 100 | > 100 | > 100 | > 100 | – |
| O=C1CCS(=O)(=O)N1c1ccc(S(=O)(=O)NCc2cccc3c2OCO3)cc1 [Compound 15] | 4.8 ± 2.9 | – | – | – | – | IC50 (µM) 24h ([1]; 24 h): not active; IC50 (µM) 48h ([1]; 48 h): not active; IC50 (µM) 24h [2]: not active; IC50 (µM) 48h [2]: not active |
| C=CCNC1=C2C[C@@H](C)C[C@H](OC)[C@H](O)[C@@H](C)/C=C(\C)[C@H](OC(N)=O)[C@@H](OC)/C=C\C=C(/C)C(=O)NC(=CC1=O)C2=O [Compound 17-AAG, 17-(Allylamino)-17-demethoxygeldanamycin, reference compound] | – | – | – | – | – | effect on Hsp90 and Hsp70 protein levels (heat shock response) ([4]; 17-AAG 2 µM, compounds 25 and 50 µM): significant up-regulation of Hsp90 and Hsp70 expression levels |
| COC(=O)c1ccc(Oc2c[nH]nc2-c2ccc(OC)cc2O)cc1 [Compound 20] | 14.2 ± 4.9 | – | – | – | – | – |
| COc1cc(/C=N/NC(=O)NC(=O)c2ccccc2Cl)ccc1O [Compound 21] | 13.2 ± 2.3 | – | – | – | – | IC50 (µM) 24h ([1]; 24 h): not active; IC50 (µM) 48h ([1]; 48 h): not active; IC50 (µM) 24h [2]: not active; IC50 (µM) 48h [2]: not active |
| CN(CCc1ccncc1)C(=O)c1ccc(N2C(=O)CCS2(=O)=O)cc1 [Compound 22] | 4.1 ± 2.6 | – | – | – | – | IC50 (µM) 24h ([1]; 24 h): not active; IC50 (µM) 48h ([1]; 48 h): not active; IC50 (µM) 24h [2]: not active; IC50 (µM) 48h [2]: not active |
| O=C(c1ccc2c(c1)OCO2)N1CCC(c2nc3ccccc3[nH]2)CC1 [Compound 26] | 25.7 ± 8.4 | > 100 | > 100 | > 100 | > 100 | – |
| CO[C@@H]1[C@@H](OC(N)=O)[C@@H](O)[C@H](Oc2ccc3c(O)c(NC(=O)c4ccc(O)c(CC=C(C)C)c4)c(=O)oc3c2C)OC1(C)C [Novobiocin, reference compound] | – | 171 | 150 | 232 | 190 | hypodiploid cells (Jurkat cells; 24 h): 14%; hypodiploid cells (Jurkat cells; 48 h): 30%; effect on cell cycle progression (Jurkat cells; 50 and 100 µM, 24 or 48 h): did not affect cell cycle progression |
